Experiments:
[1] = Clinical study of docetaxel plus plinabulin versus docetaxel alone: dexamethasone-related treatment emergent adverse events; type: in vivo, patients
Method: Patients received either docetaxel plus plinabulin (DN) or docetaxel alone (75 mg/m^2) (D) treatment. Two dosing cohorts were investigated: • 1) 30 mg/m^2 dosing cohort: patients were randomized (1:1) to receive either docetaxel plus plinabulin at 30 mg/m^2 (DN 30 mg/m^2 arm) or docetaxel alone (D arm), • 2) 20 mg/m^2 dosing cohort: patients were randomized (2:1) to receive either docetaxel plus plinabulin at 20 mg/m^2 (DN 20 mg/m^2 arm) or docetaxel (D arm) alone.
Patients received therapy on Day 1 and Day 8 in 3-week cycles. Therapy on Day 1 consisted of 75 mg/m^2 docetaxel administered via intravenous infusion (IV) over 1 hour, followed 2 hours later (from the time the docetaxel infusion began) by placebo (Arm D) or 30 mg/m^2 or 20 mg/m^2 plinabulin (Arm DN) administered via intravenous infusion (IV) over 30 minutes. […]
Treatment Phase: Safety assessments (including a complete physical examination) were performed prior to study drug infusion. […] Additionally, the following were evaluated: CBC with differential/platelets and clinical chemistry were performed up to 72 hours prior to Day 1 of each cycle; an additional assessment occurred in Cycle 1/Day 15; Vital signs (heart rate, respiratory rate, blood pressure and temperature) were taken on the days of infusion immediately before and after each study drug infusion and at 30 and 60 minutes following last infusion on the first cycle. […]

[2] = target: T1, PDE5 (Homo sapiens, UniProt O76074); experiment: Phosphodiesterase bioassay screening, PDE5 assay; type: biochemical; settings: Plinabulin concentration 10 μm; n 2; source human platelets; [3H]cAMP+cAMP substrate; 25° C.
T1 construct: The source for the PDE3 and PDE5 assays were human platelets; from tissue; host or cells: human platelets
Method: (§1) Plinabulin was tested using Phosphodiesterase assays including PDE3, PDE4, and PDE5 assays. The source for the PDE3 and PDE5 assays were human platelets and for PDE4 assay was human U937 cells. The substrate for all three assays was 1.01 µM [.H]cAMP+cAMP. For all three assays, the pre-incubation time was 15 mins, the incubation time was 20 mins, and the pre-incubation and incubation temperature was 25° C. The quantification method involves quantitation of [^3H]Adenosine, and the significant criteria was set for i 50% of max stimulation or inhibition.

[3] = target: T2, PDE3 (Homo sapiens, UniProt Q14432); experiment: Phosphodiesterase bioassay screening, PDE3 assay; type: biochemical; settings: Plinabulin concentration 10 μm; n 2; source human platelets; [3H]cAMP+cAMP substrate; 25° C.
T2 construct: The source for the PDE3 and PDE5 assays were human platelets; from tissue; host or cells: human platelets
Method: as §1

[4] = tested on: PDE4; experiment: Phosphodiesterase bioassay screening, PDE4 assay; type: biochemical, human
Method: as §1

T2 sequence (Q14432 whole entry): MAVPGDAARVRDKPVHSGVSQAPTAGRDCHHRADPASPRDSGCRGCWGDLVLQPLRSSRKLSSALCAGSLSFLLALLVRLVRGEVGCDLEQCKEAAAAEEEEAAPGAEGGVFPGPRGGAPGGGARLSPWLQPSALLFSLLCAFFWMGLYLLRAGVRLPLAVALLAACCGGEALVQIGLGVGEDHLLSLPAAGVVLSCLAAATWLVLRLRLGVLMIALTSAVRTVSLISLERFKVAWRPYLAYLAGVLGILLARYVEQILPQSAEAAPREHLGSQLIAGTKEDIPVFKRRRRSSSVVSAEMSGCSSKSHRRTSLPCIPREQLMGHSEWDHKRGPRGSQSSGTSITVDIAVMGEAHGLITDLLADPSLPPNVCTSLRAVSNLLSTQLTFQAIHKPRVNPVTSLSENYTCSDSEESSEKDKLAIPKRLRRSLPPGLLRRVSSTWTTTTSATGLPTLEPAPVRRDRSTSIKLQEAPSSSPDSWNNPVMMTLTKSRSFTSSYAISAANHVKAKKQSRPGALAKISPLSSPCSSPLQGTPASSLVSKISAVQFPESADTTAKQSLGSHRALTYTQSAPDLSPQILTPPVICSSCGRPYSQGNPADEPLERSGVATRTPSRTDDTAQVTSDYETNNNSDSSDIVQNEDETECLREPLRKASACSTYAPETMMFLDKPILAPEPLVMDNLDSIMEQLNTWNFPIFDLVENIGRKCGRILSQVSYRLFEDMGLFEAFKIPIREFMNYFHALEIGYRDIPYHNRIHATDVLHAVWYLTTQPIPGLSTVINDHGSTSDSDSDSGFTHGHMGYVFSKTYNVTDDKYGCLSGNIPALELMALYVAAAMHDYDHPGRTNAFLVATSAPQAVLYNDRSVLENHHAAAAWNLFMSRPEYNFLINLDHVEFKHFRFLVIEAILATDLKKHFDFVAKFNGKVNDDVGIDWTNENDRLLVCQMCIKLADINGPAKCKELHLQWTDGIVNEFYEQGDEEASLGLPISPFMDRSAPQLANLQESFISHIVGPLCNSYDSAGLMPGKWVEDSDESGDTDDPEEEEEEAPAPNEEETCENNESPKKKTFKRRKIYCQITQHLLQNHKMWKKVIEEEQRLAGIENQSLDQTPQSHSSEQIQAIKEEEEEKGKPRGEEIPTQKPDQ

SMILES: CC(C)(C)c1[nH]cnc1/C=c1\[nH]c(=O)/c(=C/c2ccccc2)[nH]c1=O [Plinabulin, (3Z,6Z)-3-Benzylidene-6-{[5-(2-methyl-2-propanyl)-1H-imidazol-4-yl]methylene}-2,5-piperazinedione]
- steroid related adverse events versus patients receiving no plinabulin ([1]; 30 mg/m^2 of plinabulin, p=0.026): statistically more significant
- steroid (dexamethasone)-related adverse events, effect of plinabulin dose (FIG. 1) ([1]; plinabulin 20 and 30 mg/m^2 added to docetaxel): dose-dependent increase
- % of inhibition [2]: 25%
- % of inhibition [3]: 7%
- % of inhibition ([4]; Plinabulin concentration 10 μm, n 2, source human U937 cells, [3H]cAMP+cAMP substrate, 25° C.): 77%
- inhibition activity against PDE4 compared with PDE3 and PDE5 ([4]; from Table 1, 10 μm): better inhibition activity against PDE4

From US20200129504A1, “COMPOSITIONS OF PLINABULIN AND USE THEREOF” (BeyondSpring Pharmaceuticals, Inc., priority 2017, published 2020)
